system: STAT1 (phosphorylated at Tyr701) in NCI-H1373 cells; experiment: Phospho-STAT1 (Tyr701) LANCE Ultra TR-FRET detection assay; type: cell-based; conditions: Homo sapiens, NCI-H1373, 48 h, induction of pSTAT1 in NCI-H1373 cells, 48 hours incubation; normalized to 10 uM positive control and DMSO; 4-parameter fit; read-out: NH1373 pSTAT1 EC50
Method in brief: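 Endogenous pSTAT1 (Tyr701) induction measured in NCI-H1373 cells seeded onto compound and incubated 48 h at 37 °C. Lysates assayed by LANCE Ultra sandwich TR-FRET; 665/620 nm ratio normalized to 10 uM reference […] (positive) and DMSO (negative). EC50 from 4-parameter fit.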

In order of falling EC50:
1. COc1cnc(-c2cc3c(cc2F)C(=O)N(C[C@@H]2CCC[C@H](Nc4cn[nH]c(=O)c4C(F)(F)F)C2)CC3)nc1 [Example 70, 7-fluoro-6-(5-methoxypyrimidin-2-yl)-2-(((1R,3S)-3-((6-oxo-5-(trifluoromethyl)-1,6-dihydropyridazin-4-yl)amino)cyclohexyl)methyl)-3,4-dihydroisoquinolin-1(2H)-one]  11.1 nM
2. O=C1c2cc(F)c(-c3ncc(C(F)(F)F)cn3)cc2CN1C[C@@H]1CCC[C@H](Nc2cn[nH]c(=O)c2C(F)(F)F)C1 [Example 74, 6-fluoro-2-(((1R,3S)-3-((6-oxo-5-(trifluoromethyl)-1,6-dihydropyridazin-4-yl)amino)cyclohexyl)methyl)-5-(5-(trifluoromethyl)pyrimidin-2-yl)isoindolin-1-one]  9.03 nM
3. CC(C)(O)c1cnc(-c2cc3c(cc2F)C(=O)N(C[C@@H]2CCC[C@H](Nc4cn[nH]c(=O)c4C(F)(F)F)C2)CC3)nc1 [Example 73, 7-fluoro-6-(5-(2-hydroxypropan-2-yl)pyrimidin-2-yl)-2-(((1R,3S)-3-((6-oxo-5-(trifluoromethyl)-1,6-dihydropyridazin-4-yl)amino)cyclohexyl)methyl)-3,4-dihydroisoquinolin-1(2H)-one]  7.8 nM
4. [2H]C([2H])([2H])Oc1cnc(-c2cc3c(cc2F)C(=O)N(C[C@@H]2CCC[C@H](Nc4cn[nH]c(=O)c4C(F)(F)F)C2)CC3)nc1 [Example 71, 7-fluoro-2-[[(1R,3S)-3-[[6-oxo-5-(trifluoromethyl)-1H-pyridazin-4-yl]amino]cyclohexyl]methyl]-6-[5-(trideuteriomethoxy)pyrimidin-2-yl]-3,4-dihydroisoquinolin-1-one]  7.6 nM
5. O=C1c2cc(F)c(-c3ncc(C(F)(F)F)cn3)cc2CCN1C[C@@H]1CCC[C@H](Nc2cn[nH]c(=O)c2C(F)(F)F)C1 [Example 69, 7-fluoro-2-[[(1R,3S)-3-[[6-oxo-5-(trifluoromethyl)-1H-pyridazin-4-yl]amino]cyclohexyl]methyl]-6-[5-(trifluoromethyl)pyrimidin-2-yl]-3,4-dihydroisoquinolin-1-one]  4.56 nM
6. O=C1c2cc(F)c(-c3ncc(C(F)F)cn3)cc2CCN1C[C@@H]1CCC[C@H](Nc2cn[nH]c(=O)c2C(F)(F)F)C1 [Example 72, 6-(5-(difluoromethyl)pyrimidin-2-yl)-7-fluoro-2-(((1R,3S)-3-((6-oxo-5-(trifluoromethyl)-1,6-dihydropyridazin-4-yl)amino)cyclohexyl)methyl)-3,4-dihydroisoquinolin-1(2H)-one]  3.74 nM

From US20250100998A1, “PARP7 INHIBITORS” (Gilead Sciences, Inc., priority 2023, published 2025)
